In this assay the target is T1, KDR (Homo sapiens, UniProt P35968).
T1 construct: purchased Millipore (assay service)
Nature of the assay: Millipore kinase assay, radiolabelled phosphopeptide filter binding, IC50 estimate. Particulars: estimated from inhibition at three compound concentrations; ATP at the Km. It counts as biochemical. On the procedure: Kinase assays at Millipore were performed using a radiolabelled phosphopeptide filter binding detection system, in duplicate, at each compound concentration. The ATP substrate concentration in the reactions was at the Km for each enzyme.
To allow for a more direct comparison of compound inhibition, an IC50 value was estimated from the inhibition determined at three compound concentrations. Several assumptions were made to allow this calculation using a 4 parameter non linear curve fit model, including full inhibition set at 100%, no inhibition set to 0%, and a curve fit parameter set at 1. The inflection point was reported as the estimated IC50.

For two compounds, IC50 results are on record in patent US8765748B2, “Indazolyl, benzimidazolyl, benzotriazolyl substituted indolinone derivatives as kinase inhibitors useful in the treatment of cancer” (University Health Network, priority 2007, dated 2014).

The structures appear in SMILES notation.

By IC50 is commonly meant the concentration that gives 50% inhibition.

T1 sequence (P35968 20-1356): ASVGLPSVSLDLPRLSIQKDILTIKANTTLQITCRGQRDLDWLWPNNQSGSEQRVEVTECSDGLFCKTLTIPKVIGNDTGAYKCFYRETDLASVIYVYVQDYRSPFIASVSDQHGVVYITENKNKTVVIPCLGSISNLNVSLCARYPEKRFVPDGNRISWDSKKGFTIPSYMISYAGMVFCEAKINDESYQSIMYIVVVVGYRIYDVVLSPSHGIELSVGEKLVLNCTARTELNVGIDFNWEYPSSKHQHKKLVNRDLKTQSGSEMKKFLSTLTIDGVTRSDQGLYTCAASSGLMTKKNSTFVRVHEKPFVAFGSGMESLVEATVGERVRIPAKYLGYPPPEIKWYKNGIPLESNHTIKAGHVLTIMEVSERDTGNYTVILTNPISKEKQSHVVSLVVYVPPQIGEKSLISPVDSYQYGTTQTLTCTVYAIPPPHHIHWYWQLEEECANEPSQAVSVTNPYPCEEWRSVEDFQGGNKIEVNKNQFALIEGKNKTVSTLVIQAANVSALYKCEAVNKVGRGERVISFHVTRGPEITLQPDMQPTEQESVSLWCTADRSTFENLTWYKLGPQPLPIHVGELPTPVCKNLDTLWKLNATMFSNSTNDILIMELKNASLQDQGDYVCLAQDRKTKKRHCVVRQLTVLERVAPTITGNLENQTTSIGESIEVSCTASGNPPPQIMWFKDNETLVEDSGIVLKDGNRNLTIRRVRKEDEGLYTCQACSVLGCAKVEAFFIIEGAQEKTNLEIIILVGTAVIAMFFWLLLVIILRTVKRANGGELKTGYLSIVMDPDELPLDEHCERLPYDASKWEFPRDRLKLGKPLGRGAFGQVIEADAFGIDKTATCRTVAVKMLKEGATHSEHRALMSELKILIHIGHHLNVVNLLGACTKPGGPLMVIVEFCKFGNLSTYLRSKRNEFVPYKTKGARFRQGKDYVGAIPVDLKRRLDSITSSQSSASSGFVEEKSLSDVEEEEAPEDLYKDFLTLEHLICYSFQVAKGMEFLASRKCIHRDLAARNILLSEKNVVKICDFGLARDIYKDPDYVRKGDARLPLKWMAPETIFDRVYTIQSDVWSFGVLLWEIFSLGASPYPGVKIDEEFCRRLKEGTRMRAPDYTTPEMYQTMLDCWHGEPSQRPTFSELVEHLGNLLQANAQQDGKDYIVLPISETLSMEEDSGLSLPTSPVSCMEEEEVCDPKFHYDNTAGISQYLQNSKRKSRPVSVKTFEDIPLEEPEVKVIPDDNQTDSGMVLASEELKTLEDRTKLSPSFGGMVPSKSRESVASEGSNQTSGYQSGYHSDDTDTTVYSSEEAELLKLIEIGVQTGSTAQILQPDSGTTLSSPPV

As for `O=C1Nc2ccccc2C1=Cc1ccc2c(/C=C/c3ccccn3)n[nH]c2c1` (mixture of isomers) [Example A41, (E and Z)-3-((3-((E)-2-(pyridin-2-yl)vinyl)-1H-indazol-6-yl)methylene)indolin-2-one], the IC50 was under 5 µM. As for `COc1ccc2c(c1)C(=Cc1ccc3c(-c4ccc(N5CCN(C)CC5)nc4)n[nH]c3c1)C(=O)N2` (mixture of isomers) [Example A97, (E and Z)-5-methoxy-3-((3-(6-(4-methylpiperazin-1-yl)pyridin-3-yl)-1H-indazol-6-yl)methylene)indolin-2-one], the figure is under 5 µM.
